Measurements published in BindingDB's records for patent US10800778 (Entasis Therapeutics Limited, 2020).
pIC50: −log10 of the molar value.

Assays:
Beta-lactamase TEM = Beta-lactamase TEM (Escherichia coli, UniProt P62593); experiment: Inhibition of Beta-Lactamase Enzymes
Procedure: (§1) A buffer consisting of 0.1 M sodium phosphate (pH 7.0), 10 mM NaHCO3, and 0.005% Triton X-100 was used for all enzymes. The chromogenic substrate nitrocefin (SynGene, Bangalore, India) was used at 100 μM. Enzyme activity was monitored by the 490 nm absorbance increase upon nitrocefin hydrolysis. Assays were performed in clear polystyrene 384-well plates (Greiner Bio-One, Monroe, N.C.). Absorbance was measured for 1 hour at 30-s intervals using a Spectramax absorbance plate reader (Molecular Devices, Sunnyvale, Calif.). Measurement of beta-lactamase inhibition by INHIBITOR employed serial 3-fold dilutions of the inhibitor in assay buffer, ranging from 100 μM to 62.7 pM. A background absorbance progress curve for a control lacking enzyme and inhibitor was subtracted from each progress curve.

Beta-lactamase = Beta-lactamase (Klebsiella pneumoniae, UniProt Q6XEC0); experiment: Inhibition of Beta-Lactamase Enzymes
Procedure: as §1

Beta-lactamase, sequence (Q6XEC0 whole entry): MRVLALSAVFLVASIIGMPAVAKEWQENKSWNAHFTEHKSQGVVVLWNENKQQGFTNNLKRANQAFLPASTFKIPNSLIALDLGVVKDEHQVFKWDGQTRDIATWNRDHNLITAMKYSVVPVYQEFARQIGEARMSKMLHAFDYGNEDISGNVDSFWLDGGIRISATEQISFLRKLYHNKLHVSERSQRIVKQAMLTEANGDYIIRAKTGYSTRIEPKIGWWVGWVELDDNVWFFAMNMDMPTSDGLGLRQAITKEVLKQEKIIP
Beta-lactamase TEM, sequence (P62593 whole entry): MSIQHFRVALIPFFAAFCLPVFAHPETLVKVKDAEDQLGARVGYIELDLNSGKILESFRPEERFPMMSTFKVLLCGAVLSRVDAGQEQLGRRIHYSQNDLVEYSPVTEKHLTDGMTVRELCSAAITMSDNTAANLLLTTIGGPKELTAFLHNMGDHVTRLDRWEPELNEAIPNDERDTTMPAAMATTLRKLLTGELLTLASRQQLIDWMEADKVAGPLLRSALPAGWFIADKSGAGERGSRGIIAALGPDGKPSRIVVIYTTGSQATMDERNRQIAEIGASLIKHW

CC1=C[C@@H]2CN(C(=O)N2O[C@@H](F)C(=O)O)[C@@H]1C(=O)NOC[C@@H]1CCCN1 [US10800778, Example 62]
pIC50 (Beta-lactamase TEM): 6.68 | pIC50 (Beta-lactamase): 6.06
